Experimental data reported in US10670605B2, “Cysteine reactive probes and uses thereof” (The Scripps Research Institute, priority 2015, dated 2020).
Where a name gives a salt, the structure may show the parent alone. One block for each compound: values may come before it.

Columns and labels:
[1] = test system: Cys residues in mouse T cells; assay: isoTOP-ABPP of DMF-treated mouse T cells; type: cell-based; conditions: 50 μM, 4 h
Description: Spleens were harvested from female mice, perfused with collagenase, and incubated at 37° C. with 5% CO2 for 30 min. After this time, the spleens were homogenized. Cells that passed through a 100 μm cell strainer were collected and washed with RPMI. T cells were isolated from the splenocytes using the EasySep™ Mouse T cell Isolation Kit (19851; […]) according to manufacturer's instructions. Cells were lysed by sonication and diluted to a concentration of 2 mg protein/mL. […] Site-specific engagement of electrophilic compounds was assessed by blockade of IA-alkyne probe labeling. […] Overlapping peptides with the same labeled cysteine (for example, same local sequence around the labeled cysteines but different charge states, MudPIT segment numbers, or tryptic termini) were grouped together, and the median ratio from each group was recorded as the R value of the peptide for that run.

[2] = test system: cysteines in MDA-MB-231 and Ramos cell proteomes; assay: Competitive isoTOP-ABPP in cell lysates (in vitro): proteomic reactivity / liganded cysteine rate; type: binding, human; conditions: fragment 500 μM; % of quantified cysteines with R ≥4
Description: All cell lines were obtained from ATCC, were used with a low passage number and were grown at 37° C. with 5% CO2. MDA-MB-231 cells and HEK-293T cells were grown in DMEM supplemented with 10% fetal bovine serum, penicillin, streptomycin and glutamine. Jurkat, Ramos and MUM2C cells were grown in RPMI-1640 medium supplemented with 10% fetal bovine serum, penicillin and streptomycin. For in vitro labeling, cells were grown to 100% confluence for MDA-MB-231 cells or until cell density reached 1.5 million cells/mL for Ramos and Jurkat cells. […] Cell pellets were lysed by sonication and fractionated (100,000 g, 45 min) to yield soluble and membrane fractions, which were then adjusted to a final protein concentration of 1.5 mg/mL for proteomics experiments and 1 mg/mL for gel-based ABPP experiments. The soluble lysate was prepared fresh from frozen pellets directly before each experiment. Protein concentration was determined using the Bio-Rad DC™ protein assay kit.
For each sample, 100 μL of streptavidin-agarose beads slurry (Pierce) was washed in 10 mL PBS and then resuspended in 5 mL PBS. The SDS-solubilized proteins were added to the suspension of streptavidin-agarose beads and the bead mixture was rotated for 3 h at ambient temperature. After incubation, the beads were pelleted by centrifugation (1,400 g, 3 min) and were washed (2×10 mL PBS and 2×10 mL water).
The beads were transferred to eppendorf tubes with 1 mL PBS, centrifuged (1,400 g, 3 min), and resuspended in PBS containing 6 M urea (500 μL). To this was added 10 mM DTT (25 μL of a 200 mM stock in water) and the beads were incubated at 65° C. for 15 mins. 20 mM iodoacetamide (25 μL of a 400 mM stock in water) was then added and allowed to react at 37° C. for 30 mins with shaking. The bead mixture was diluted with 900 μL PBS, pelleted by centrifugation (1,400 g, 3 min), and resuspended in 200 μL PBS. To this was added 1 mM CaCl2 ([…]) and trypsin (2 μg, Promega, sequencing grade) and the digestion was allowed to proceed overnight at 37° C. with shaking. The beads were separated from the digest with Micro Bio-Spin columns (Bio-Rad) by centrifugation (1,000 g, 1 min), washed (2×1 mL PBS and 2×1 mL water) and then transferred to fresh eppendorfs with 1 mL water. The washed beads were washed once further in 140 μL TEV buffer (50 mM Tris, pH 8, 0.5 mM EDTA, 1 mM DTT) and then resuspended in 140 μL TEV buffer. 5 μL TEV protease (80 μM) was added and the reactions were rotated overnight at 29° C. The TEV digest was separated from the beads with Micro Bio-Spin columns by centrifugation (1,400 g, 3 min) and the beads were washed once with water (100 μL). The samples were then acidified to a final concentration of 5% (v/v) formic acid and stored at −80° C. prior to analysis.

IMPACT C195 (Q9P2X3) = IMPACT C195 (Q9P2X3) (Homo sapiens, UniProt Q9P2X3); assay: Competitive isoTOP-ABPP in situ; type: cell-based; conditions: fragment 4 at 100 μM, MDA-MB-231 cells
Chain of IMPACT C195 (Q9P2X3) (Q9P2X3 whole entry, the tested form may be a part): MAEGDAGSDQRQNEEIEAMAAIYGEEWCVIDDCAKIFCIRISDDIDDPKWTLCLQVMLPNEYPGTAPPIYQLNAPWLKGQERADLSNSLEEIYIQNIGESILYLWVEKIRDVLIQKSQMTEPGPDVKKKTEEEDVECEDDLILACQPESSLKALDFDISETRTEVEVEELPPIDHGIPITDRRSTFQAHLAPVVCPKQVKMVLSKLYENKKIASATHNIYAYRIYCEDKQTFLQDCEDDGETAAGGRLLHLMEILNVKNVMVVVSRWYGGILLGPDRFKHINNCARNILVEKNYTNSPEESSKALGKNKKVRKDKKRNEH

SMILES: COC(=O)/C=C/C(=O)OC [DMF, dimethyl fumarate]
- fraction of conserved, quantified DMF-sensitive Cys also blocked (R >4) in mouse T cells [1]: > 80%

SMILES: O=C(CCl)Nc1cc(C(F)(F)F)cc(C(F)(F)F)c1 [compound 3]
- proteomic reactivity value (liganded cysteine rate) [2]: 15%

- isoTOP-ABPP reactivity profile (ratio) 4_100 μM_in-situ_231 (IMPACT C195 (Q9P2X3)): 20.0
SMILES: COc1ccc(C2CC(c3cccs3)=NN2C(=O)CCl)cc1 (stereo not drawn) [compound 4]
